Like-named read-outs stand apart in the source and are kept apart here.

Data set [1] concerns glutamate-cysteine-ligase modifier subunit (GCLM). Briefly: Gene expression by real-time PCR in EC: GCLM. In kind it is cell-based, bovine. The following applies: 3 hours; NAC 2 mM, ASSNAC 0.2 mM. An excerpt: (§1) Total RNA was collected by EZ-RNA 2 kit, treated with DNAse, converted to cDNA and assayed in triplicate by real-time quantitative PCR using a ABI Prism 7700 Sequence Detector System (Applied Biosystem, Foster City, Calif., USA), with Absolute SYBR Green ROX mix and analyzed (SDS 2.1 software). Primers: human glutamate-cysteine-ligase modifier subunit (GCLM)—Forward: 5′[…] GTAAC3′ • and Reverse: 5′[…]3′; • Human heme oxygenase-1 (HO-1)—Forward: 5′[…]3′ • and Reverse: 5′[…]3′; • bovine TGF β2—Forward: […] • and Reverse: […]; • bovine TNF-alfa—Forward: […] • and Reverse: […]; • bovine ICAM-1—Forward: […] • and Reverse: […]; • bovine VCAM-1 Forward: […] • and Reverse: […]. • Results were normalized based on the quantity of human β-actin. Primers—Forward: 5′CCTGGCACCCAGCACAAT3′ and Reverse: 5′[…]3′.
(§2) Increased expression of the phase II detoxifying enzymes by cells is indicative of increased protection against oxidative stress. In order to determine the effect of NAC and ASSNAC on gene expression in EC, cells were treated with NAC (2 mM) and ASSNAC (0.2 mM) for 3 hours following by extraction of mRNA. The expression of GCLM and HO-1 was then studied by Real-Time PCR. […] Without being bound by any theory or mechanism of action, the GCLM activity and the cystein level are considered to be the rate limiting step of the glutathione synthesis. […]

The test system of data set [2] is Bovine aortic endothelial cells (EC). Put plainly: Determination of total glutathione in endothelial cell cultures. The following applies: for EC50: Bos taurus, Endothelial cell, concentration giving half-maximal increase of glutathione level, read-out: HALF-maximal (effect of increased glutathione level); for Maximal effect (increased glutathione level): concentration giving maximal increase of glutathione level; for glutathione cellular level as a function of time: FIG. 2A. In kind it is cell-based. Here is the method: (§3) Bovine aortic endothelial cells (EC) were prepared from bovine aorta, cultured in DMEM supplemented with 5% fetal calf serum, 5% calf serum, 2 mM L-glutamine, 100 U/ml penicillin, 100 μg/ml streptomycin, 12.5 U/ml nystatin and FGF-2 (3 ng/ml; added every 48 hours). Cultures were incubated at 37° C. in a humidified 10% CO2 atmosphere and passages 12-18 were used for experiments.
(§4) EC cultures were incubated in the presence or absence of PDTC, NAC, ASSNAC and their combinations. At the end of the incubation, cells were washed, collected into 10 mM HCl and further lyzed by samples freezing (in liquid nitrogen) and thawing, 3 times. Cell protein was precipitated by addition of SSA (10%) followed by centrifugation at 10,000 g and supernatant was collected for glutathione determination. Total glutathione (GSH+GSSG) was determined by the Anderson recycling method. Briefly, a reaction mixture containing phosphate buffer, EDTA, DTNB, NADPH and glutathione reductase was added to 96-wells plates already containing 20 μl of the experimental samples or a GSSG standard. The plates were shaken and OD at 405 nm was monitored at 10 sec intervals for 130 sec in a micro-plate reader. To determine the GSSG level in the total cellular glutathione, 2-vinylpyridine was used to conjugate GSH and remove it from the mixture followed by total glutathione determination as described above. For normalization, the protein pellet of each sample was lyzed in 0.2 N NaOH and quantified by the Lowry method.

The test system of data set [3] is heme oxygenase-1 (HO-1). Put plainly: Gene expression by real-time PCR in EC: HO-1. Format: cell-based, bovine. The following applies: 3 hours; NAC 2 mM, ASSNAC 0.2 mM.
Text: as §1, §2

The subject of data set [4] is ICAM-1. Briefly: Gene expression by real-time PCR in EC: ICAM-1. In kind it is cell-based, bovine. The conditions noted are these: 3 hours; ASSNAC 0.2 mM, LPS 1 μg/ml.
Text: as §1
(§5) The effect of ASSNAC on gene expression was further shown to be specific. Endothelial cells (EC) were treated by ASSNAC (0.2 mM) and LPS (1 μg/ml) for 3 hours following by mRNA extraction. The expression of the inflammatory genes TGF β2, ICAM-1, VCAM-1 and TNFα was then studied by Real-Time PCR. […] Only TGF β2 was induced by ASSNAC and to a lesser extent by LPS. TNFα expression was not induced by either ASSNAC or LPS (Table 2B).

The test system of data set [5] is TGF β2. Put plainly: Gene expression by real-time PCR in EC: TGF β2. In kind it is cell-based, bovine. The following applies: 3 hours; ASSNAC 0.2 mM, LPS 1 μg/ml.
Text: as §1, §5

Data set [6] deals with TNFα. Put plainly: Gene expression by real-time PCR in EC: TNFα. In kind it is cell-based, bovine. The following applies: 3 hours; ASSNAC 0.2 mM, LPS 1 μg/ml.
Text: as §1, §5

The subject of data set [7] is VCAM-1. Briefly: Gene expression by real-time PCR in EC: VCAM-1. Format: cell-based, bovine. The following applies: 3 hours; ASSNAC 0.2 mM, LPS 1 μg/ml.
Text: as §1, §5

The subject of data set [8] is human neuroblastomas SH-SY5Y cell line. Briefly: Cellular glutathione level in SH-SY5Y cultures. Format: cell-based. The procedure: In order to establish the potential effect of ASSNAC on glutathione up-regulation in the nerve system as a mean to protect against neurodegenerative diseases the effect of ASSNAC on the human neuroblastomas SH-SY5Y cell line was studied. The cells were cultured in DMEM supplemented with 10% fetal calf serum, 2 mM L-glutamine, 100 U/ml penicillin, 100 μg/ml streptomycin, 12.5 U/ml nystatin. Cultures were incubated at 37° C. in a humidified 10% CO2 atmosphere.
as §4
The effect was observable at a concentration of 0.05 mM with a 2.4-fold maximal increase in glutathione at a concentration of 0.2 mM. The results are presented as mean±SD (n=2). A significant increase in glutathione was determined by ANOVA analysis (p<0.005; FIG. 8A).
Confluent SH-SY5Y cultures were exposed to ASSNAC (0.2 mM) for various time periods. The cultures were then washed and the cellular level of total glutathione was determined. […] The results are presented as mean±SD (n=2). A significant increase in glutathione was determined by ANOVA analysis (p<0.005; FIG. 8B).

The test system is the same in data set [9]. Briefly: Protection of SH-SY5Y cultures against tBuOOH cytotoxicity (neutral red). The following applies: then tBuOOH 1 mM 3 hours.
The subject of data set [10] is Endothelial cells (EC). Put plainly: Cytotoxicity test, BuOOH-stimulated cytotoxicity in endothelial cells (Neutral Red). Format: cell-based, bovine. The conditions noted are these: pre-incubation 18 hours; ASSNAC 0.2 mM vs NAC 1 mM and CSSA 0.2 mM; BuOOH 0.1 mM 3 hours. The procedure:
as §3
Endothelial cells (EC; 10^4 cells/well) were grown till confluency in fibronectin-coated (5 μg/ml) 96 wells plates. Confluent EC were pre-incubated with ASSNAC 0.2 mM, CSSA 0.2 mM and NAC 1 mM for 18 hours in growth medium at 37° C. Subsequently, cells were washed with serum free DMEM medium and treated with […] ([…]) 0.1 mM for 3 hours. The number of viable cells was determined by Neutral Red (NR) staining method. After removing the culture medium, cells were incubated in NR working solution (1:100 in DCCM) for 2 hours at 37° C. […] Optical density of the dye was determined at 550 nm in an ELISA reader. The cell cytotoxicity was calculated by the following formula: Cytotoxicity (%)=[1−NR uptake in treated wells/NR uptake in control wells]×100 The control (untreated wells) were determined as 0% cytotoxity, the average of triplicates of each treatment is shown.

In data set [11] the test system is Bovine aortic endothelial cells (EC). The conditions noted are these: from L. Horev-Azaria, Ph.D. Thesis, cited from earlier work.
Where [12] appears, read: 24 hours, increasing concentrations.

As to `CC(=O)N[C@@H](CS)C(=O)O` [NAC, N-acetylcysteine], the GCLM gene expression in data set [1] is listed as 1.0 ± 0.2 (n = 3). In addition, in data set [2], the “Maximal Fold Increase (glutathione level)” value (from here on “Maximal Fold Increase”) came to 2.5, the EC50 was found to be 320 µM and the “Maximal effect (increased glutathione level)” value was determined as 500 µM. In data set [2] (setting [12]), the “concentration of maximal effect on glutathione level” value came out at 2 mM. Further, the “time to maximal increase in glutathione level” value in data set [2] (NAC 2 mM) amounted to 6 h. Also, in data set [3], the HO-1 gene expression was 0.9 ± 0.1 (n = 3).
For the compound `S=C(S)N1CCCC1` [PDTC, Pyrrolidine dithiocarbamate], the “reduced glutathione (GSH) versus PDTC concentration” value in data set [2] (24 hours, increasing concentrations, FIG. 6A) was “concentration dependent increase”. Also, in data set [2] (PDTC 0.1 mM, increasing time intervals, FIG. 6B), the “concentration of GSH versus time” value is listed as “linear increase”.
Consider lipopolysacharide [LPS], for which the ICAM-1 gene expression in [4] stood at 19.52. The “TGF β2 gene expression” value in data set [5] is 5.7. This compound also returned a TNFα gene expression in data set [6] of 0.71. The compound also displayed a VCAM-1 gene expression in [7] of 104.7.
`C=CCSSC[C@H](NC(C)=O)C(=O)O` [ASSNAC, S-allylmercapto-N-acetylcysteine] yielded an ICAM-1 gene expression in data set [4] of 1.03. For the same compound, in data set [8] (24 hours), the “concentration at which increase in glutathione is observable” value came to 0.05 mM and the “concentration of maximal increase in glutathione” value is 0.2 mM. In addition, in data set [8] (24 hours, at 0.2 mM), the “maximal increase in glutathione” value worked out at 2.4 fold. In addition, the “time of maximal increase in glutathione” value in data set [8] (ASSNAC 0.2 mM) was 24 h. Besides, the GCLM gene expression in data set [1] is 2.3 ± 1.0 (n = 4). For the same compound, in data set [5], the “TGF β2 gene expression” value worked out at 2.14. Further, the TNFα gene expression in [6] is listed as 0.77. Moreover, in data set [2], the “Maximal Fold Increase” value is given as 4, the EC50 came to 60 µM and the “Maximal effect (increased glutathione level)” value came to 200 µM. Moreover, the “glutathione level after 24 hours, ASSNAC in comparison to CSSA” value in [2] (0.2 mM, 24 hours) was “higher glutathione level”. Further, in data set [2] (0.2 mM), the “glutathione cellular level as a function of time” value is listed as “significant increase in glutathione cellular level”. Moreover, in data set [2] (setting [12]), the “concentration at which up-regulation of glutathione level starts” value turned out to be 0.05 mM and the “concentration of maximal effect on glutathione level” value is on record as 0.2 mM. The “signs of cytotoxic effect” value in data set [2] (up to a concentration of 2.0 mM, 24 hours) is recorded as “without any signs of cytotoxic effect”. Besides, the VCAM-1 gene expression in data set [7] stood at 0.94. Also, the “cytotoxicity after ASSNAC pretreatment” value in data set [9] (ASSNAC 0.2 mM 24 hours) was found to be 25%. Also, the “concentration at which decrease in cytotoxicity starts” value in data set [9] (pretreatment 24 hours) amounted to 25 µM. In addition, the HO-1 gene expression in [3] was 8.2 ± 4.2 (n = 4). Also, the “protection of cells from BuOOH oxidation stress” value in data set [10] is recorded as “better protection”.
On to `C=CCS[S+]([O-])CC=C` (centres unmarked) [Allicin], for which, in data set [11], the “Maximal Fold Increase” value is recorded as 8 and the “Maximal effect (increased glutathione level)” value is 20 µM. Besides, the EC50 in [11] (read-out: HALF-maximal (effect of increased glutathione level)) was 7 µM.
As for `C=CCSSC[C@H](N)C(=O)O` [CSSA, S-allylmercaptocysteine], in [2], the “Maximal Fold Increase” value turned out to be 2, the EC50 is 70 µM and the “Maximal effect (increased glutathione level)” value was 200 µM. Besides, the “speed of glutathione response” value in data set [2] (0.2 mM, CSSA compared with ASSNAC) is reported as “faster response”. Moreover, the “glutathione cellular level as a function of time” value in data set [2] (0.2 mM) is reported as “significant increase in glutathione cellular level”. In addition, the “distribution of glutathione up-regulation between GSH and GSSG” value in data set [2] (0.3 mM CSSA, FIG. 4) is “increase in GSH but not in GSSG level”. In addition, the “GSSG level as share of the total cellular glutathione level” value in [2] (0.3 mM CSSA, different time intervals) is listed as “lower than 2%”.

The values above are taken from patent US8455552B2, “Composition comprising S-allylmercapto-N-acetylcysteine (ASSNAC) for up-regulation of cellular glutathione level” (RAMOT et Tel Aviv University Ltd., priority 2007, dated 2013).
